For series [1], the system named is Ac-tubulin in RPMI-8226 cells. The series is described as follows: Western blot of Ac-tubulin. In kind it is cell-based, human. As to conditions: 24 h; for Ac-α-tubulin protein expression: tested concentrations. The procedure:
(§1) RPMI-8226 cells were seeded in six-well plates and treated with compounds for 24 h. Cells were lysed with 1× SDS loading buffer (50 mM Tris pH 6.8, 100 mM DTT, 2% SDS, 0.1% bromophenol blue, 10% glycerol), and then centrifuged at 12,000 rpm for 5 min at 4 °C. Cell extracts were probed with antibodies Ac-Tubulin (#5335T, CST, Kansas City, MO, USA), α-Tubulin (#2144S, CST, Kansas City, MO, USA), AcH3 (#ab39139, active motif, Carlsbad, CA, USA), Histone H3 (#17168-1-AP, Proteintech, Chicago, IL, USA), GAPDH (#60004-1-1g, Proteintech, Chicago, IL, USA), Goat Anti-Mouse IgG, H&L Chain Specific Peroxidase Conjugate (#401215, Calbiochem, Darmstadt, Germany), Goat Anti-Rabbit IgG, or H&L Chain Specific Peroxidase Conjugate (#401353, Calbiochem, Germany), then detected using Bio-RAD power pal Basic (#041BR66615, BioRad Laboratories, Hercules, CA, USA), Bio-RAD Mini-PROTEAN Tetrade System (#IEC/EN 61010-1, BioRad Laboratories, Hercules, CA, USA), or Bio-RAD Chemi Touch Imagin (BioRad Laboratories, Hercules, CA, USA).
Background: A western blot detects proteins with antibodies after separation by electrophoresis.

Series [2] concerns HL-60 (human leukemia cell line). The series is described as follows: CCK8 cell viability assay, HL-60. In kind it is cell-based. As to conditions: 72 h, read-out: Proliferation inhibition IC50 ± SD, HL-60. The protocol:
(§2) The CCK8 (#AC11L054, Life ilab, Shanghai, China) method was used to detect the cells’ proliferation. Cells were seeded into a 96-well culture plate at an appropriate density. […] IC50 values were estimated using the four-parameter method. Each set of experiments was repeated independently three times with three replicate wells per concentration each time.
A general note: Formazan colour is commonly taken as a measure of viable cells.

In series [3] the test system is RPMI-8226 (human myeloma cell line). The experiment in a line: CCK8 cell viability assay, RPMI-8226. In kind it is cell-based. The following applies: 72 h, read-out: Proliferation inhibition IC50 ± SD, RPMI-8226. The procedure: as §2
Series [4] deals with HCT-116 (human colon cancer cell line). The series is described as follows: CCK8 cell viability assay, HCT-116. In kind it is cell-based. As to conditions: 72 h, read-out: Proliferation inhibition IC50 ± SD, HCT-116. The procedure: as §2
Series [5] addresses T1, HDAC1 (Homo sapiens, UniProt Q13547).
T1 construct: purchased BPS #50001
The experiment in a line: HDAC inhibition assay (HTRF), HDAC1.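 Also: HTRF detection with streptavidin-XL665 plus Eu(K)-labelled anti-H3K9me0 antibody, two independent runs with duplicate wells per concentration.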 As to conditions: read-out: IC50 ± SD, HDAC1. Type of series: biochemical. (In general: Time-resolved FRET reads energy transfer from a long-lived donor to a nearby acceptor.)
Description: (§3) Then, SA-XL665 (#610SAXLG, Cisbio, Bedford, MA, USA) and anti-H3K9me0-Eu(K) (#61KB0KAD, Cisbio, USA) were added. […] The IC50 value of the compounds was calculated using GraphPad 7.0 software. Each set of experiments was independently repeated twice, with two replicate wells per concentration each time.

In series [6] the target is HDAC3 (Homo sapiens, UniProt O15379). The series is described as follows: HDAC inhibition assay (HTRF), HDAC3.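 Also: HTRF detection with streptavidin-XL665 and a Eu cryptate-labelled antibody against unmodified H3K9, two independent runs with duplicate wells at each concentration.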
HDAC3, sequence (O15379 whole entry): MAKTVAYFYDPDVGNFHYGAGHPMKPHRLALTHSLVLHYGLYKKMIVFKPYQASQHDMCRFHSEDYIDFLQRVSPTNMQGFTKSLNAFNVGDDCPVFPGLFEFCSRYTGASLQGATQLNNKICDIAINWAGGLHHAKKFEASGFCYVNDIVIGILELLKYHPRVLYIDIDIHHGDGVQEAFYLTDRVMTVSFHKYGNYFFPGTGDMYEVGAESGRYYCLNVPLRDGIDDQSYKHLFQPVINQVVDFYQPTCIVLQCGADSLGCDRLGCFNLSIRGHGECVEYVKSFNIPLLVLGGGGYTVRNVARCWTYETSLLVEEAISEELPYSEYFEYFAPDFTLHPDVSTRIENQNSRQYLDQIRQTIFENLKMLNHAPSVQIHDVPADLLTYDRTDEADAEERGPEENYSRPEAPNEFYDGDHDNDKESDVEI
HDAC3, sequence (Q9Y618 395-489 partner limits assumed): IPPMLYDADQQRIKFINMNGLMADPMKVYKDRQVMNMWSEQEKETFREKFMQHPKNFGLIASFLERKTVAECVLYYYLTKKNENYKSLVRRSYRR
Description: as §3
Series [7] addresses T2, HDAC6 (Homo sapiens, UniProt Q9UBN7).
T2 construct: purchased BPS #50006
T2 sequence (Q9UBN7 1-1215): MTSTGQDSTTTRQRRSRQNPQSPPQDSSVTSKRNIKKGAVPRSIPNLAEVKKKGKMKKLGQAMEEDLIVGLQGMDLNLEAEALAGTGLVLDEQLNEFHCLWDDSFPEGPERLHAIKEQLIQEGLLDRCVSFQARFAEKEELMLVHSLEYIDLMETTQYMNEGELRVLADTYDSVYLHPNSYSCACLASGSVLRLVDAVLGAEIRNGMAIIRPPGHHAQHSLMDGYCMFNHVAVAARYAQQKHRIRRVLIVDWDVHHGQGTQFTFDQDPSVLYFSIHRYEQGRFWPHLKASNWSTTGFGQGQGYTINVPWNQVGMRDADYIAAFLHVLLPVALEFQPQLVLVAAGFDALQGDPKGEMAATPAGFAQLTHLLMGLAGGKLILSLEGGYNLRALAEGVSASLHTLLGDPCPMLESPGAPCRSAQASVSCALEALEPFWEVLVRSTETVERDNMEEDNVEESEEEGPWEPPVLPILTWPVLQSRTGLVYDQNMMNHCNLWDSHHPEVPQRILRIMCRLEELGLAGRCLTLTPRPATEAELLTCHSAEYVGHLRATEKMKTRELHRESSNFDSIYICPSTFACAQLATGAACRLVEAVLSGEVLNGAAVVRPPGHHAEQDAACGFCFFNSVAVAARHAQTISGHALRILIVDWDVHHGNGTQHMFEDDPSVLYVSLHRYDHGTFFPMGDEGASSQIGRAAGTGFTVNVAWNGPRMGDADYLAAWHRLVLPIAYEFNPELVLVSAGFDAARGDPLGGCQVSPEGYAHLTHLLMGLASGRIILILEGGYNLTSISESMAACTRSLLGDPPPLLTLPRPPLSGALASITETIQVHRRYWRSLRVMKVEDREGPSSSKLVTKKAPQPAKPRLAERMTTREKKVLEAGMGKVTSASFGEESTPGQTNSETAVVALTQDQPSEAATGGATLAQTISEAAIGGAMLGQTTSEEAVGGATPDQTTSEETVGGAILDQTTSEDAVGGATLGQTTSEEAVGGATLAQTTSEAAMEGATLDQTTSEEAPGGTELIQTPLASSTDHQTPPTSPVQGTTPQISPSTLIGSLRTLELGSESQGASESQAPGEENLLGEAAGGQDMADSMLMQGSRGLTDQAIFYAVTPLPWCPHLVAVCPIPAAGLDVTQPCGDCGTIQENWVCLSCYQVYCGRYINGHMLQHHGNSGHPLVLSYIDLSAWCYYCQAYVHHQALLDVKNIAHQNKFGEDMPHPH
The experiment in a line: HDAC inhibition assay (HTRF), HDAC6. Type of series: biochemical. As to conditions: read-out: IC50 ± SD, HDAC6.
Description: as §3

The test system of series [8] is RPMI-8226 cells. The series is described as follows: Apoptosis assay, Annexin V-FITC/PI flow cytometry. Type of series: cell-based, human. The following applies: 1, 3 and 10 μM, 48 h. From the text:
Annexin V-FITC and PI double-staining detection kits were used to determine apoptotic cells. […] Data results were obtained from three independent experiments.

In series [9] the test system is Ac-histone H3 in RPMI-8226 cells. The experiment in a line: Western blot of Ac-histone H3. In kind it is cell-based, human. As to conditions: 24 h; for Histone H3 acetylation level: 10 μM. The protocol:
as §1

A short description of series [10]: Pharmacokinetic study in male ICR mice. Type of series: in vivo. The following applies: mouse, plasma. The protocol: Specific procedures were referred to the reported method. ICR mice (n = 6) were fasted for 12 h before administration and remained fasting for 2 h. The animal room environment was controlled (target conditions: temperature 18 to 29 °C, relative humidity 30 to 70%). Temperature and relative humidity were monitored daily. An electronic time-controlled lighting system was used to provide a 12 h light/12 h dark cycle. Compound 20 was administered at doses of 5 mg/kg (po) and 1 mg/kg (iv). The time points for blood sample collection were 0.25, 0.50, 1.00, 2.00, 4.00, 8.00, and 24 h post dose for the po-administrated group, and the time points were 0.05, 0.25, 0.75, 2.00, 4.00, 8.00, and 24 h for the iv group. For each point, 20 μL of plasma were transferred into a clean tube, 200 μL of MeOH/ACN (50/50, v/v) containing IS were added, and they were thoroughly vortexed by a vortex mixer for 1 min. The mixture was centrifuged at 15000 rpm for 5 min, and then 20 μL of supernatant was mixed with 20 μL of water for the analysis by LC-MS.

The conditions of series [11]: ref [46],[47]; cited from earlier work.

Molecules are shown by their SMILES.

The values that follow come from paper PMC11477621, “Design, Synthesis, and Biological Evaluation of HDAC Inhibitors Containing Natural Product-Inspired N-Linked 2-Acetylpyrrole Cap” (Molecules, 2024).

T1 sequence (Q13547 whole entry): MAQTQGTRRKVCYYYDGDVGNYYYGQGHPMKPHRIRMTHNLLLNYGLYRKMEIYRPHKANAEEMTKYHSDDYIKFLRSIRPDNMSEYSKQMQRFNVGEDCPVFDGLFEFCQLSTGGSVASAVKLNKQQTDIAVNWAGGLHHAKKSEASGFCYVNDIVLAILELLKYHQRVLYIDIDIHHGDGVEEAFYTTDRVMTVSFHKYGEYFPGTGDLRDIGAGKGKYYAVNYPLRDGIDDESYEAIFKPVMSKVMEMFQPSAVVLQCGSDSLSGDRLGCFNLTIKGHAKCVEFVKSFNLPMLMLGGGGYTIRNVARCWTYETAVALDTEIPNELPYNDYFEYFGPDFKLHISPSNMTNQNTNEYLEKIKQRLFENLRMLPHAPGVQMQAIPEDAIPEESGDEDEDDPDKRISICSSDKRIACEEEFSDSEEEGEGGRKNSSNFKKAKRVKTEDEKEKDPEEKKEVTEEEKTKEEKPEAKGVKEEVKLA

As for `Nc1cc(F)ccc1NC(=O)c1ccc(CNC(=O)/C=C/c2cccnc2)cc1` [Chidamide, reference compound], the Ac-α-tubulin protein expression entry in [1] is listed as “no discernible effect”. In addition, the results for the IC50 in [2], in [3] and in series [4] were 0.5 ± 0.08 µM, 10.2 ± 1.02 µM and 4.67 ± 0.53 µM, respectively.
Turning to `O=C(CCCCCCn1cccc1C(=O)C(F)(F)F)NO` [Compound 5c, N-hydroxy-7-(2-(2,2,2-trifluoroacetyl)-1H-pyrrol-1-yl)heptanamide], the IC50 in [5] was found to be 0.0368 ± 0.00587 µM; in [6] it was 0.0266 ± 0.0019 µM; in series [7], 0.00422 ± 0.0001 µM; in [2], 8.56 ± 1.47 µM; in series [3], 11.9 ± 1.58 µM; in series [4], 12.3 ± 2.2 µM. Besides, the “Promotion of RPMI-8226 cell apoptosis” value in series [8] is on record as “promote RPMI-8226 cell apoptosis in a dose-dependent manner”.
As for `CC(=O)c1cccn1Cc1ccc(/C=C/C(=O)NO)cc1` [Compound 14, (E)-3-(4-((2-acetyl-1H-pyrrol-1-yl)methyl)phenyl)-N-hydroxyacrylamide], the “Acetylated histone H3 compared to compound 5c” value in series [9] (same concentration) is “induced more acetylated tubulin and acetylated histone H3”. For the same compound, the IC50 in series [5] was found to be 0.8 ± 0.0504 µM; in series [6] it was 0.457 ± 0.173 µM; in series [7] it was 0.0337 ± 0.0148 µM; in series [2] it was 8.16 ± 1.96 µM; in series [3] it was 8.85 ± 2.3 µM; in series [4] it was 8.63 ± 0.82 µM. For the same compound, the “Acetylated tubulin compared to compound 5c” value in series [1] (same concentration) was “induced more acetylated tubulin”. Moreover, in [8], the “Promotion of RPMI-8226 cell apoptosis” value is given as “promote RPMI-8226 cell apoptosis in a dose-dependent manner”.
As to `CC(=O)c1cccn1Cc1cn(CCc2ccc(C(=O)Nc3ccccc3N)cc2)nn1` [Compound 19a, 4-(2-(4-((2-Acetyl-1H-pyrrol-1-yl)methyl)-1H-1,2,3-triazol-1-yl)ethyl)-N-(2-aminophenyl)benzamide], the “Histone H3 acetylation level” value in [9] was “increased histone H3 acetylation levels comparable to MS-275”. Also, the IC50 is 1.1 ± 0.144 µM in series [5]; 1.39 ± 0.373 µM in series [6]; above 10 µM in series [7]; 8.32 ± 0.37 µM in [2]; 10 ± 0.52 µM in series [3]; 13.2 ± 2.48 µM in series [4]. Further, the Ac-α-tubulin protein expression entry in series [1] is “no discernible effect”. Moreover, in series [8], the “Promotion of RPMI-8226 cell apoptosis” value is listed as “promote RPMI-8226 cell apoptosis in a dose-dependent manner”.
For `CC(=O)c1cccn1CCc1ccc(C(=O)Nc2ccccc2N)cc1` [Compound 20, 4-(2-(2-Acetyl-1H-pyrrol-1-yl)ethyl)-N-(2-aminophenyl)benzamide], the “Histone H3 acetylation level” value in series [9] is reported as “increased histone H3 acetylation levels comparable to MS-275”. Moreover, in series [5], the IC50 is 0.441 ± 0.0782 µM. In series [1], the Ac-α-tubulin protein expression result was “no discernible effect”. In addition, the IC50 in series [6] was 1.08 ± 0.229 µM. The IC50 in series [7] is above 10 µM. Moreover, the IC50 in series [2] turned out to be 4.71 ± 0.24 µM. For the same compound, in series [8], the “Promotion of RPMI-8226 cell apoptosis” value is recorded as “promote RPMI-8226 cell apoptosis in a dose-dependent manner”. In addition, in [10] (iv, 1 mg/kg), the AUC(0-inf) stood at 163 ± 3 ng·h/mL, the AUC(0-t) amounted to 163 ± 3 ng·h/mL, the MRT inf came out at 10.9 ± 0.36 min and the clearance turned out to be 102 ± 2 mL/min/kg. The compound further gave a half-life in series [10] (iv, 1 mg/kg) of 11.5 ± 0.72 min. For the same compound, in series [10] (iv, 1 mg/kg, read-out: Vss), the Vd amounted to 1.11 ± 0.052 L/kg. In [10] (po, 5 mg/kg), this compound gave an AUC(0-inf) of 47.2 ± 26.6 ng·h/mL, an AUC(0-t) of 40.7 ± 21.8 ng·h/mL, a Cmax of 48.3 ± 31.1 ng/mL and an MRT inf of 110 ± 25.2 min. Also, in series [10] (po, 5 mg/kg), the Tmax was 20 ± 8.64 min and the half-life was 93 ± 30.6 min. In addition, the bioavailability in series [10] (po, 5 mg/kg, read-out: F (oral bioavailability)) stood at 5%. Besides, the IC50 in series [3] was determined as 2.89 ± 0.43 µM. In series [4], the IC50 is 9.08 ± 0.58 µM.
With `Nc1ccccc1NC(=O)c1ccc(CNC(=O)OCc2cccnc2)cc1` [MS-275, entinostat, reference compound], the Ac-α-tubulin protein expression entry in [1] is “no discernible effect”.
For the compound `O=C(CCCCCCC(=O)Nc1ccccc1)NO` [SAHA, vorinostat], in series [11], the “F% (oral bioavailability)” value was 8.33%.
Take `Cc1[nH]c2ccccc2c1CCNCc1ccc(/C=C/C(=O)NO)cc1` [panobinostat]: the “F% (oral bioavailability)” value in [11] is 4.62%.

One may read the AUC(0-inf) as total exposure, with the tail of the curve extrapolated. A low value points to less exposure. A word on the AUC(0-t): it is exposure summed from dosing to a finite time, without extrapolation to infinity. High values mean more exposure, low ones less exposure. In general, MRT inf refers to a mean duration of stay, worked out from the concentration-time curve. By clearance is commonly meant the rate of elimination divided by the concentration. Read a high clearance as a high capacity for elimination. As a reminder, the half-life is the time needed for the level to fall by half in the phase considered. A high value points to slow loss. In general, Cmax refers to the peak of the concentration-time curve. Broadly, the Tmax is the time at which the peak concentration occurs. For orientation: bioavailability means the share of a dose that reaches the circulation, judged against a reference dose that is usually intravenous.
